“And” between values parts separate entries of the source, which are not always exact repeats. Equal values may be shown once. Values belong to the compound of their own block, whether it stands above or below them.
System: 494315-158-R-J1-PDC complex spheroid growth, percent test/control
Assay: Anticancer human tumor 494315-158-R-J1-PDC patient-derived soft tissue sarcoma cell line growth inhibition [Asc]
Conditions: for viability, T/C: stronger effect = lower value
Method in brief: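 Stromal components (HUVEC and hMSC) are co-assembled with the cancer cells into multicellular spheroids. Drugs are then added singly or paired, at concentrations falling by half-log increments from a clinically achievable maximum, capped at 10 microM without known Cmax.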
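Further: compound exposure lasted seven days after spheroids formed for three days.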

IC50 (curve of first compound, second compound 0.1 µM): > 3 µM
IC50 (curve of first compound, second compound 0.316 µM): > 3 µM
IC50 (curve of first compound, second compound 1 µM): 1.02 µM
IC50 (curve of first compound, second compound 3.16 µM): 0.0717 µM
IC50 (curve of first compound, second compound 10 µM): > 3 µM
SMILES: CCN1C(C(=O)NC23CCC(C(=O)O)(CC2)CC3)C(c2cccc(Cl)c2F)C2(C(=O)Nc3cc(Cl)ccc32)C12CCCCC2 (centres undefined) + Cc1c(S(C)(=O)=O)c(-c2cc(F)cc(N3CCN(c4ccc(NS(=O)(=O)c5ccc(NC(CCN6CCC(C(=O)OCCCP(=O)(O)O)CC6)CSc6ccccc6)c(S(=O)(=O)C(F)(F)F)c5)cc4)CC3)c2)c(-c2ccc(Cl)cc2)n1C(C)C
viability, T/C (second compound 0.1 µM, first compound 0.00949 µM): 80.3%
viability, T/C (second compound 0.1 µM, first compound 0.03 µM): 86.6%
viability, T/C (second compound 0.1 µM, first compound 0.0949 µM): 84.4%
viability, T/C (second compound 0.1 µM, first compound 0.3 µM): 77.4%
viability, T/C (second compound 0.1 µM, first compound 0.949 µM): 77.4%
viability, T/C (second compound 0.1 µM, first compound 3 µM): 67%
viability, T/C (second compound 0.316 µM, first compound 0.00949 µM): 79.1%
viability, T/C (second compound 0.316 µM, first compound 0.03 µM): 74.9%
viability, T/C (second compound 0.316 µM, first compound 0.0949 µM): 64.4%
viability, T/C (second compound 0.316 µM, first compound 0.3 µM): 60.7%
viability, T/C (second compound 0.316 µM, first compound 0.949 µM): 63.3%
viability, T/C (second compound 0.316 µM, first compound 3 µM): 54.3%
viability, T/C (second compound 1 µM, first compound 0.00949 µM): 66%
viability, T/C (second compound 1 µM, first compound 0.03 µM): 66.3%
viability, T/C (second compound 1 µM, first compound 0.0949 µM): 68.8%
viability, T/C (second compound 1 µM, first compound 0.3 µM): 62.8%
viability, T/C (second compound 1 µM, first compound 0.949 µM): 50.8%
viability, T/C (second compound 1 µM, first compound 3 µM): 39.7%
viability, T/C (second compound 3.16 µM, first compound 0.00949 µM): 53.3%
viability, T/C (second compound 3.16 µM, first compound 0.03 µM): 45.1%
viability, T/C (second compound 3.16 µM, first compound 0.0949 µM): 53.8%
viability, T/C (second compound 3.16 µM, first compound 0.3 µM): 46.5%
viability, T/C (second compound 3.16 µM, first compound 0.949 µM): 45.8%
viability, T/C (second compound 3.16 µM, first compound 3 µM): 35.6%
viability, T/C (second compound 10 µM, first compound 0.00949 µM): 83%
viability, T/C (second compound 10 µM, first compound 0.03 µM): 73.3%
viability, T/C (second compound 10 µM, first compound 0.0949 µM): 68.4%
viability, T/C (second compound 10 µM, first compound 0.3 µM): 68.5%
viability, T/C (second compound 10 µM, first compound 0.949 µM): 52.8%
viability, T/C (second compound 10 µM, first compound 3 µM): 52.8%

IC50 (curve of compound): > 1 µM
SMILES: CCN1CCN(Cc2ccc(Nc3ncc(F)c(-c4cc(F)c5nc(C)n(C(C)C)c5c4)n3)nc2)CC1
viability, T/C (compound 0.00316 µM): 86.4% and 118% and 98.1%
viability, T/C (compound 0.01 µM): 95.3% and 99.7% and 103%
viability, T/C (compound 0.0316 µM): 97.3% and 110% and 101%
viability, T/C (compound 0.1 µM): 94.9% and 96.2% and 93.2%
viability, T/C (compound 0.316 µM): 86.4% and 92.8% and 116%
viability, T/C (compound 1 µM): 87% and 91.4% and 104%

IC50 (curve of compound): > 1 µM
SMILES: O=C(c1ccc(F)c(F)c1Nc1ccc(I)cc1F)N1CC(O)([C@@H]2CCCCN2)C1
viability, T/C (compound 0.00316 µM): 92.8% and 93% and 99.5%
viability, T/C (compound 0.01 µM): 111% and 90% and 99.1%
viability, T/C (compound 0.0316 µM): 108% and 106% and 90.2%
viability, T/C (compound 0.1 µM): 124% and 100% and 114%
viability, T/C (compound 0.316 µM): 98.4% and 90% and 111%
viability, T/C (compound 1 µM): 57.7% and 54.8% and 65.7%
